The test system of data set [1] is Mus musculus. The data set is described as follows: Toxicity in nude mouse KSN assessed as weight loss at 2 mg/kg, ip qd administered every other day for 19 days measured on day 21 relative to vehicle treated control. It is filed as organism-based. Set-up: dose 2 mg/kg, route intraperitoneal. Conditions: in vivo, 456 h.
The test system of data set [2] is HT-29. Description: Antitumor activity against human HT-29 cells xenografted in nude mouse KSN assessed as reduction in tumor volume at 2 mg/kg, ip qd administered every other day from day 7 post-tumor injection for 19 days measured on day 21 relative to vehicle treated control. It is filed as functional. To be noted: route intraperitoneal. A general note: A xenograft is tissue or cells of one species grown in another, often human tumour cells in immunodeficient mice.

For data set [3], the system named is HeLa. Description: Antiproliferative activity against human HeLa cells after 48 hrs by WST-8 assay. It is filed as functional, cell-based.
Data set [4] can be described thus: Antiproliferative activity against human NAMALWA cells after 48 hrs by WST-8 assay. It is filed as functional, cell-based. Conditions: NAMALVA.
In data set [5] the test system is HT-29. Description: Antiproliferative activity against human HT-29 cells after 48 hrs by WST-8 assay. The class given is functional, cell-based. To be noted: HT-29, 48 h. A general note: Tetrazolium assays rely on reduction of a dye to a coloured formazan, in cell work by metabolically active cells.
Data set [6] has as its system NCI-H2052. Description: Antiproliferative activity against human NCI-H2052 cells after 48 hrs by WST-8 assay. It is filed as functional, cell-based. Conditions: NCI-H2052, 48 h.
The target of data set [7] is Tyrosyl-DNA phosphodiesterase 1 (Homo sapiens, UniProt Q9NUW8). Description: Inhibition of human Tdp1 using 3'-phosphate-(4-methylumbelliferone)-thymidine as substrate after 180 mins by spectrophotometry.
Chain of Tyrosyl-DNA phosphodiesterase 1 (Q9NUW8 whole entry): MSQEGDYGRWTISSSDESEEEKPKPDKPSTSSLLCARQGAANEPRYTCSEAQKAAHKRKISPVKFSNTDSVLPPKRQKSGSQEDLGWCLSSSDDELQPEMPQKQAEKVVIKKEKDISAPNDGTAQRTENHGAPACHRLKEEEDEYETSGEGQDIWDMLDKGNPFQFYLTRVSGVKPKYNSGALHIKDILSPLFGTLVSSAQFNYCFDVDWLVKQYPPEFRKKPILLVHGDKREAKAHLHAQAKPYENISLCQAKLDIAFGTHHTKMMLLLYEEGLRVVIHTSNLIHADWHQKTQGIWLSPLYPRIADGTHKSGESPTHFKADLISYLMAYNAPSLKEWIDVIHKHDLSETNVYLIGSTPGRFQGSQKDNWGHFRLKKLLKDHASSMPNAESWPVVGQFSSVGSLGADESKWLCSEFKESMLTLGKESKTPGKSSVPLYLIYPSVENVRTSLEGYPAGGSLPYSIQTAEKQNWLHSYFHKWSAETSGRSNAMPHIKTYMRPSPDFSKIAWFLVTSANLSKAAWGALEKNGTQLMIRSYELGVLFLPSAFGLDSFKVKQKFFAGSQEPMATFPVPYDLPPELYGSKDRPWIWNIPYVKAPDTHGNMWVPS
Data set [8] relates to Mus musculus. The data set is described as follows: Toxicity in nude mouse KSN assessed as adverse effects at 2 mg/kg, ip qd administered every other day for 19 days measured on day 21 relative to vehicle treated control. The class given is organism-based. To be noted: in vivo, 456 h. Set-up: dose 2 mg/kg, route intraperitoneal.

The structures appear in SMILES notation. pIC50: −log10 of the molar value.

As to `CCCCC(C)C1=CC(=O)C2=C(O[C@]3(C)CC[C@H]4O[C@@H]([C@@](C)(O)C(=O)O)CC[C@]4(C)[C@H]3C2)C1=O` (stereo partly drawn), the Activity result in data set [1] and in data set [8] was “Non-toxic” in each case. In addition, the T/C in data set [2] is 0.51. Moreover, the pIC50 in data set [3] is 5.04; in data set [4] it was 5.46; in data set [5], 5.40; in data set [6], 4.89; in data set [7] it was 4.74.

For orientation: pIC50 means the negative decadic logarithm of the IC50, by convention in mol/L.

For the origin of these results see ChEMBL document CHEMBL2034861, “Tyrosyl-DNA phosphodiesterase 1 inhibitor from an anamorphic fungus” (J Nat Prod, 2012).
